For test [1], the target named is T1, Axl (Homo sapiens, UniProt P30530).
T1 sequence (P30530 26-894): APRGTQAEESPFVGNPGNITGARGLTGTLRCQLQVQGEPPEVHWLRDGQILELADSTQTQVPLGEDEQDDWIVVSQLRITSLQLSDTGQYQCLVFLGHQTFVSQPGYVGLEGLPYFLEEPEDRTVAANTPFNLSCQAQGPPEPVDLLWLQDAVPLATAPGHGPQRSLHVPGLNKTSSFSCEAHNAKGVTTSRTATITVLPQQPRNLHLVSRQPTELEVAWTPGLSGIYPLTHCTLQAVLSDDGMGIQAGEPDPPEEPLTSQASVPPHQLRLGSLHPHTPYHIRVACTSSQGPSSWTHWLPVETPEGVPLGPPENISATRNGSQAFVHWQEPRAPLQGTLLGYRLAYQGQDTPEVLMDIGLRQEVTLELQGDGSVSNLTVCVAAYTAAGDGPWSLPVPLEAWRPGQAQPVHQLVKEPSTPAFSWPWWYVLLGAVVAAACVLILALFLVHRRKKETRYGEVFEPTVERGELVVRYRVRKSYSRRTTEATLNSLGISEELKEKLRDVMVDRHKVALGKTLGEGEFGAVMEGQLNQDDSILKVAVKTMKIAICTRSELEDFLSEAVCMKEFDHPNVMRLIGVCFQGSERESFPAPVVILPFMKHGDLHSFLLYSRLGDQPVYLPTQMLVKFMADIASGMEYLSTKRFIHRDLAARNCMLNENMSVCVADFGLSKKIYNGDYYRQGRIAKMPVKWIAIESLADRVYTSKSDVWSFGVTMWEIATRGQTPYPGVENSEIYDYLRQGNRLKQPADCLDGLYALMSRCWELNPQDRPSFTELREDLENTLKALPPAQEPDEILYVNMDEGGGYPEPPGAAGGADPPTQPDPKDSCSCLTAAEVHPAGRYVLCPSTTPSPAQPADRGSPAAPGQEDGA
The test is described as follows: Axl NanoBRET intracellular kinase assay (intracellular binding, K-5 tracer displacement). The arrangement: host or cells: HEK-293. The following applies: HEK-293 cells transfected with Axl-NanoLuc, 0.35 μM K-5 NanoBRET tracer; read-out: Cell Binding AXL. The procedure, abridged: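 HEK-293 cells transiently transfected with Axl-NanoLuc, 8K cells/well at 0.5% DMSO, pre-incubated 1 h with compound at 37 °C, then 2 h with 0.35 μM K-5 tracer. BRET ratio 610/450 nm; IC50 by 4-parameter fit of tracer displacement.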

Test [2] addresses T1, Axl. Description: Biochemical potency, HTRF KinEASE-TK kinase assay. The arrangement: purchased Invitrogen. To be noted: 5 nM AXL, 700 μM ATP. The procedure, abridged: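 Compounds preincubated 1 h at RT with enzyme in 50 mM HEPES pH 7.4, 10 mM MgCl2, 0.01% BSA, 1 mM DTT; reactions then ran 2 h at RT with 5 nM AXL or 1 nM TYRO3/MER, 800 nM TK substrate-biotin, 700 μM ATP, 1% DMSO. HTRF 665/620 ratio read; percent activity calculated.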
For orientation: In TR-FRET formats the signal depends on donor and acceptor labels being close together.

With `Cc1cccnc1-c1ccc(-c2c[nH]c3ncc(-c4ccc5c(c4)CC[C@@H](N4C6COCC4C6)CC5)cc23)cc1` [Example 1, 6-[(7S)-2-{3-[4-(3-Methylpyridin-2-yl)phenyl]-1H-pyrrolo[2,3-b]pyridin-5-yl}-6,7,8,9-tetrahydro-5H-benzo[7]annulen-7-yl]-3-oxa-6-azabicyclo[3.1.1]heptane], the IC50 in test [1] and in test [2] was less than 100 nM in each case.

For `Cc1nncn1-c1ccc(-c2n[nH]c3ncc(-c4ccc5c(c4)CC[C@@H](N4C6COCC4C6)CC5)cc23)cc1` [Example 11, 6-[(7S)-2-{3-[4-(3-Methyl-4H-1,2,4-triazol-4-yl)phenyl]-1H-pyrazolo[3,4-b]pyridin-5-yl}-6,7,8,9-tetrahydro-5H-benzo[7]annulen-7-yl]-3-oxa-6-azabicyclo[3.1.1]heptane], the figures for the IC50 in test [1] and in test [2] were 100 to 1000 nM and less than 100 nM, respectively.

Consider `CS(=O)(=O)c1ccccc1-c1ccc(-c2c[nH]c3ncc(-c4ccc5c(c4)CC[C@@H](N4C6COCC4C6)CC5)cc23)cc1` [Example 93, 6-[(7S)-2-(3-{2′-Methanesulfonyl-[1,1′-biphenyl]-4-yl}-1H-pyrrolo[2,3-b]pyridin-5-yl)-6,7,8,9-tetrahydro-5H-benzo[7]annulen-7-yl]-3-oxa-6-azabicyclo[3.1.1]heptane], for which the IC50 in test [1] and in test [2] was less than 100 nM throughout.

For the compound `Fc1cccnc1-c1ccc(-c2c[nH]c3ncc(-c4ccc5c(c4)CC[C@@H](N4C6COCC4C6)CC5)cc23)cc1` [Example 42, 6-[(7S)-2-{3-[4-(3-Fluoropyridin-2-yl)phenyl]-1H-pyrrolo[2,3-b]pyridin-5-yl}-6,7,8,9-tetrahydro-5H-benzo[7]annulen-7-yl]-3-oxa-6-azabicyclo[3.1.1]heptane], the values for the IC50 in test [1] and in test [2] were 100 to 1000 nM and less than 100 nM, respectively.

`Fc1cc(-c2c[nH]c3ncc(-c4ccc5c(c4)CC[C@@H](N4C6COCC4C6)CC5)cc23)ccc1-c1ccccn1` [Example 40, 6-[(7S)-2-{3-[3-Fluoro-4-(pyridin-2-yl)phenyl]-1H-pyrrolo[2,3-b]pyridin-5-yl}-6,7,8,9-tetrahydro-5H-benzo[7]annulen-7-yl]-3-oxa-6-azabicyclo[3.1.1]heptane]: the IC50 in test [1] was 100 to 1000 nM; in test [2], less than 100 nM.
